In ChEMBL document CHEMBL3576760, “Modification of amphipathic non-opioid dynorphin A analogues for rat brain bradykinin receptors” (Bioorg Med Chem Lett, 2015):
Calls of active or inactive are those of the source. The calls are words filed in the database; no cut-off is given here. Non-standard residues stand in square brackets, D forms with d. Residues, ends and D or L forms follow the SMILES beside them. ξ: configuration not given here. Phe(4-NH2) = Nc1ccc(C[C@H](N)C(=O)O)cc1; dNle = CCCC[C@@H](N)C(=O)O; ξNle = CCCCC(N)C(=O)O

How the values were obtained:
[1] = Retention time of the compound by HPLC analysis; type: physicochemical
[2] = (§1) Displacement of [3H]DALKD from bradykinin receptor in rat brain membrane at pH 6.8 by competition assay; type: cell membranes
[3] = Displacement of [3H]DALKD from bradykinin receptor in rat brain membrane at pH 7.4 by competition assay; type: cell membranes
Rattus norvegicus = species: Rattus norvegicus; assay: as §1; type: cell membranes

Compound | Retention_time [1] [min] | pIC50 [2] | IC50 ([2]; read-out: IC50) [nM] | IC50 [3] [nM] | pIC50 [3] | pIC50 (Rattus norvegicus) | IC50 [2]
CC(C)C[C@H](NC(=O)[C@H](CCCCN)NC(=O)[C@@H]1CCCN1C(=O)[C@@H](N)CCCNC(=N)N)C(=O)N[C@@H](CCCCN)C(=O)O | 6 | 7.24 | 58 | – | – | – | –
CC[C@H](C)[C@H](NC(=O)[C@H](CCCNC(=N)N)NC(=O)[C@@H](NC(=O)[C@@H](N)Cc1ccccc1)[C@@H](C)CC)C(=O)N[C@@H](CCCNC(=N)N)C(=O)N1CCC[C@H]1C(=O)N[C@@H](CCCNC(=N)N)C(=O)O (H-FIRIRPR-OH) | 9.9 | 6.96 | 110 | – | – | – | –
CC(C)C[C@H](NC(=O)[C@H](CCCCN)NC(=O)[C@@H](N)Cc1ccccc1)C(=O)N[C@@H](CCCCN)C(=O)O (H-FKLK-OH) | 10.8 | – | – | 350 | 6.46 | – | –
CC(C)C[C@H](NC(=O)[C@H](CCCNC(=N)N)NC(=O)[C@H](CC(C)C)NC(=O)[C@@H](N)Cc1ccccc1)C(=O)N[C@@H](CCCNC(=N)N)C(=O)N1CCC[C@H]1C(=O)N[C@@H](CCCNC(=N)N)C(=O)O (H-FLRLRPR-OH) | 10.8 | 7 | 100 | – | – | – | –
CC[C@H](C)[C@H](NC(=O)[C@H](CCCNC(=N)N)NC(=O)[C@H](CCCNC(=N)N)NC(=O)[C@H](CC(C)C)NC(=O)[C@@H](N)Cc1ccccc1)C(=O)O (H-FLRRI-OH) | 9.2 | – | – | 4800 | 5.32 | – | –
CC[C@H](C)[C@H](NC(=O)[C@H](CCCNC(=N)N)NC(=O)[C@H](CCCNC(=N)N)NC(=O)[C@H](CC(C)C)NC(=O)[C@@H](N)Cc1ccccc1)C(=O)N[C@@H](CCCNC(=N)N)C(=O)N1CCC[C@H]1C(=O)N[C@@H](CCCCN)C(=O)N[C@@H](CC(C)C)C(=O)O (H-FLRRIRPKL-OH) | 11.4 | 5.28 | 5200 | – | – | – | –
CC[C@H](C)[C@H](NC(=O)[C@H](CCCNC(=N)N)NC(=O)[C@@H](N)Cc1ccccc1)C(=O)N[C@@H](CCCNC(=N)N)C(=O)N1CCC[C@H]1C(=O)N[C@@H](CCCCN)C(=O)N[C@@H](CC(C)C)C(=O)N[C@@H](CCCCN)C(=O)O (H-FRIRPKLK-OH) | 10.2 | 7.08 | 83 | – | – | – | –
CCCCC(NC(=O)[C@H](CCCNC(=N)N)NC(=O)C(CCCC)NC(=O)[C@@H](N)Cc1ccccc1)C(=O)N[C@@H](CCCNC(=N)N)C(=O)N1CCC[C@H]1C(=O)N[C@@H](CCCNC(=N)N)C(=O)O (some centres not stated) (H-F[ξNle]R[ξNle]RPR-OH) | – | 7.06 | 87 | – | – | – | –
CC(C)C[C@H](NC(=O)[C@H](Cc1ccccc1)NC(=O)CN)C(=O)N[C@@H](CCCNC(=N)N)C(=O)O (H-GFLR-OH) | 8.7 | – | – | 950 | 6.02 | – | –
CC[C@H](C)[C@H](NC(=O)[C@H](CCCNC(=N)N)NC(=O)[C@H](CCCNC(=N)N)NC(=O)[C@H](CC(C)C)NC(=O)[C@H](Cc1ccccc1)NC(=O)CN)C(=O)O (H-GFLRRI-OH) | 10.1 | – | – | 2300 | 5.63 | – | –
CC[C@H](C)[C@H](NC(=O)[C@H](CCCNC(=N)N)NC(=O)[C@H](CC(C)C)NC(=O)[C@H](Cc1ccccc1)NC(=O)CNC(=O)CN)C(=O)N[C@@H](CCCNC(=N)N)C(=O)N1CCC[C@H]1C(=O)N[C@@H](CCCCN)C(=O)N[C@@H](CC(C)C)C(=O)N[C@@H](CCCCN)C(=O)O (H-GGFLRIRPKLK-OH) | – | 7.39 | 41 | – | – | – | –
CC[C@H](C)[C@H](N)C(=O)N[C@@H](CCCNC(=N)N)C(=O)N1CCC[C@H]1C(=O)N[C@@H](CCCCN)C(=O)N[C@@H](CC(C)C)C(=O)N[C@@H](CCCCN)C(=O)O (H-IRPKLK-OH) | 6.8 | 7.31 | 49 | – | – | – | –
CC[C@H](C)[C@H](NC(=O)[C@H](CCCNC(=N)N)NC(=O)[C@@H]1CCCN1C(=O)[C@H](CCCCN)NC(=O)[C@H](CC(C)C)NC(=O)[C@@H](N)CCCCN)C(=O)O (H-KLKPRI-OH) | 9.9 | 5.2 | 6300 | – | – | – | –
CC[C@H](C)[C@H](NC(=O)[C@H](CCCNC(=N)N)NC(=O)[C@@H]1CCCN1C(=O)[C@H](CCCCN)NC(=O)[C@H](CC(C)C)NC(=O)[C@@H](N)CCCCN)C(=O)N[C@@H](CCCNC(=N)N)C(=O)N[C@@H](CC(C)C)C(=O)N[C@@H](Cc1ccccc1)C(=O)NCC(=O)NCC(=O)O (H-KLKPRIRLFGG-OH) | 12.1 | 6.82 | 150 | – | – | – | –
CC[C@H](C)[C@H](NC(=O)[C@H](CCCNC(=N)N)NC(=O)[C@@H]1CCCN1C(=O)[C@H](CCCCN)NC(=O)[C@H](CC(C)C)NC(=O)[C@@H](N)CCCCN)C(=O)N[C@@H](CCCNC(=N)N)C(=O)N[C@@H](CCCNC(=N)N)C(=O)N[C@@H](CC(C)C)C(=O)N[C@@H](Cc1ccccc1)C(=O)NCC(=O)NCC(=O)O (H-KLKPRIRRLFGG-OH) | 11.6 | 7.11 | 78 | – | – | – | –
CC[C@H](C)[C@H](NC(=O)[C@H](CCCNC(=N)N)NC(=O)[C@@H]1CCCN1C(=O)[C@@H](N)CCCCN)C(=O)N[C@@H](CCCNC(=N)N)C(=O)N[C@@H](CC(C)C)C(=O)O (H-KPRIRL-OH) | 9.9 | 6.03 | 930 | – | – | – | –
CC[C@H](C)[C@H](NC(=O)[C@H](CCCNC(=N)N)NC(=O)[C@@H]1CCCN1C(=O)[C@@H](N)CCCCN)C(=O)N[C@@H](CCCNC(=N)N)C(=O)N[C@@H](CC(C)C)C(=O)N[C@@H](Cc1ccccc1)C(=O)O (H-KPRIRLF-OH) | 14.5 | 7.3 | 50 | – | – | – | –
CC[C@H](C)[C@H](NC(=O)[C@H](CCCNC(=N)N)NC(=O)[C@@H]1CCCN1C(=O)[C@H](CCCCN)NC(=O)[C@H](CC(C)C)NC(=O)[C@@H](N)CC(C)C)C(=O)N[C@@H](CCCNC(=N)N)C(=O)N[C@@H](CCCNC(=N)N)C(=O)N[C@@H](CC(C)C)C(=O)N[C@@H](Cc1ccccc1)C(=O)NCC(=O)NCC(=O)O (H-LLKPRIRRLFGG-OH) | 12.6 | 7.03 | 93 | – | – | – | –
CC(C)C[C@H](NC(=O)[C@H](CCCCN)NC(=O)[C@@H]1CCCN1)C(=O)N[C@@H](CCCCN)C(=O)O (H-PKLK-OH) | – | 6.68 | 210 | – | – | – | –
CCCCC(NC(=O)[C@H](CCCCN)NC(=O)[C@@H]1CCCN1)C(=O)N[C@@H](CCCCN)C(=O)O (some centres not stated) (H-PK[ξNle]K-OH) | 7.5 | – | – | 71 | 7.15 | – | –
CC[C@H](C)[C@H](NC(=O)[C@@H](N)CCCNC(=N)N)C(=O)N[C@@H](CCCNC(=N)N)C(=O)N1CCC[C@H]1C(=O)N[C@@H](CCCCN)C(=O)N[C@@H](CC(C)C)C(=O)N[C@@H](CCCCN)C(=O)O (H-RIRPKLK-OH) | 8.3 | 7.19 | 65 | – | – | – | –
CC(C)C[C@H](NC(=O)[C@H](CCCCN)NC(=O)[C@@H](N)Cc1ccc(N)cc1)C(=O)N[C@@H](CCCCN)C(=O)O (H-[Phe(4-NH2)]KLK-OH) | 7.2 | – | – | 450 | 6.35 | – | –
CCCC[C@@H](NC(=O)[C@H](N)Cc1ccccc1)C(=O)N[C@H](CCCNC(=N)N)C(=O)N[C@H](CCCC)C(=O)N[C@H](CCCNC(=N)N)C(=O)N1CCC[C@@H]1C(=O)N[C@H](CCCCN)C(=O)O (H-[dF][dNle][dR][dNle][dR][dP][dK]-OH) | 11.1 | – | – | – | – | inactive | Not Active
CCCCC(N)C(=O)N[C@@H](CCCCN)C(=O)N[C@H](C(=O)N[C@@H](CCCCN)C(=O)N1CCC[C@H]1C(=O)N[C@@H](CCCCN)C(=O)O)[C@@H](C)CC (some centres not stated) (H-[ξNle]KIKPK-OH) | 7.9 | 6.34 | 460 | – | – | – | –
CCCCC(N)C(=O)N[C@@H](CCCCN)C(=O)N1CCC[C@H]1C(=O)N[C@@H](CCCCN)C(=O)NC(CCCC)C(=O)N[C@@H](CCCCN)C(=O)O (some centres not stated) (H-[ξNle]KPK[ξNle]K-OH) | – | 7.11 | 78 | – | – | – | –
CCCCC(N)C(=O)N[C@@H](CCCCN)C(=O)NC(CCCC)C(=O)N[C@@H](CCCCN)C(=O)O (some centres not stated) (H-[ξNle]K[ξNle]K-OH) | 9.9 | – | – | 110 | 6.94 | – | –
CCCCC(N)C(=O)N[C@@H](CCCNC(=N)N)C(=O)N1CCC[C@H]1C(=O)N[C@@H](CCCNC(=N)N)C(=O)NC(CCCC)C(=O)N[C@@H](CCCCN)C(=O)O (some centres not stated) (H-[ξNle]RPR[ξNle]K-OH) | 8.2 | 7.08 | 83 | – | – | – | –
